Test results taken from patent US20200155567A1, “TREATMENT OF CANCERS USING A COMBINATION COMPRISING PARP INHIBITORS, TEMOZOLOMIDE AND/OR RADIATION THERAPY” (BEIGENE, LTD., priority 2017, published 2020).

Experiments:
[1] = system: non-BRCA1/2-mutated cancers; settings: cited from earlier work
PARP1/2 = settings: disclosed in WO2013/097225A1; cited from earlier work
[2] = system: locally advanced or metastatic solid tumors; type: in vivo
Method: This dose-escalation/expansion study is enrolling pts using a modified 3+3 design to establish the safety and MTD of Compound B plus TMZ. During dose escalation, pts receive Compound B plus escalating doses of TMZ QD on Days 1-7 (Arm A) or continuously (Arm B) of each 28-day cycle. In Arm A and Arm B: Compound B was administered at the doses of 60 mg PO BID; TMZ was administered at 20 mg, 40 mg, 80 mg, 120 mg QD corresponds to 12 mg/m^2, 23 mg/m^2, 46 mg/m^2and 69 mg/m^2assuming an average body surface area of 1.73 m^2, respectively will be administered PO QD.
The primary endpoint is safety/tolerability, including estimation of MTD and RP2D. Key secondary endpoints are PK profiles of TMZ and Compound B and antitumor activity (RECIST v1.1) of combination treatment; biomarker (eg, gBRCA) assessment is exploratory.

[3] = system: H209-T small cell lung cancer xenografts; experiment: H209-T intracranial tumor model; type: in vivo, nude mice; settings: single agent, 2.73 mg/kg BID
Text: H209-T is a TMZ-resistant cell line generated by treating H209-xenografted tumors with multiple cycles of TMZ in vivo.

[4] = system: tumor cell lines with defects of the HR pathway; experiment: in vitro activity against tumor cell lines with defects of the HR pathway; type: cell-based
Text: (§1) Inhibition of PARylation in the tumor tissues correlated well with tumor drug concentrations of Compound B.

PARylation = experiment: PK/PD study, PARylation in MDA-MB-436 breast cancer xenografts; type: in vivo, mice; settings: oral administration
Text: as §1

brain penetrance = settings: in vivo
[5] = system: newly diagnosed or recurrent/refractory glioblastoma (GBM); experiment: dose-escalation/expansion study of Compound B with RT and/or TMZ in GBM (Example 5); type: in vivo, human; settings: across study arms, 15 patients
Method: This ongoing dose-escalation/expansion study was designed to determine the safety/tolerability and antitumor effects of Compound B (60 mg PO BID) in combination with RT and/or TMZ. The dose-escalation component consists of 3 arms:
(Arm A) Compound B (60 mg BID) at increasing exposures of 2, 4, or 6 weeks in combination with RT for 6 to 7 weeks, in newly diagnosed patients with GBM with unmethylated MGMT promoter (‘unmethylated GBM’)), and after RT is completed, subjects will receive no further study treatment;
(Arm B) Depending on the safety of the Arm A combination, Compound B in combination with RT for 6 to 7 weeks and increasing TMZ doses, in newly diagnosed patients with unmethylated GBM, and after RT is completed, subjects will receive no further study treatment;
(Arm C) Compound B in combination with increasing dose of TMZ administered on Days 1 to 21 of each 28-day cycle, in patients with recurrent/refractory methylated or unmethylated GBM.
In Arm A, Arm B and Arm C: Compound B was administered at the doses of 60 mg BID (PO); Radiation therapy (RT) was administered QD×5 days/week for 6 to 7 weeks with 1.8 to 2 Gy/fraction for a total dose of up to 60 Gy; flat-dosing was used for TMZ, and the first dose level of 40 mg QD corresponds to 23 mg/m^2 assuming an average body surface area of 1.73 m^2. […]

MDA-MB-436 breast cancer = experiment: BRCA1-mutant mouse xenograft model (MDA-MB-436 breast cancer); type: in vivo
Text: as §1

[6] = system: H209 small cell lung cancer xenograft; settings: single agent, 2.73 mg/kg BID x 21 days

## Cn1ncnc1[C@H]1c2n[nH]c(=O)c3cc(F)cc(c23)N[C@@H]1c1ccc(F)cc1 [talazoparib]
[1]; plus 37 mg/m^2 of TMZ
  MTD, talazoparib: 1 mg

## C[C@]12CCCN1CC1=NNC(=O)c3cc(F)cc4[nH]c2c1c34 [Compound A, (R)-2-fluoro-10a-methyl-7,8,9,10,10a,11-hexahydro-5,6,7a,11-tetraazacyclohepta[def]cyclopenta[a]fluoren-4(5H)-one]
PARP1/2
  PARP1/2 inhibitory activities: highly selective and potent

## Cn1nnc2c(C(N)=O)ncn2c1=O [TMZ, temozolomide]
[2]; human, in vivo
  most common drug-related AE: thrombocytopenia (n pts): 5
[1]; with 1 mg talazoparib
  MTD, TMZ: 37 mg/m^2

## C[C@]12CCCN1CC1=NNC(=O)c3cc(F)cc4[nH]c2c1c34 [Compound B, (R)-2-fluoro-10a-methyl-7,8,9,10,10a,11-hexahydro-5,6,7a,11-tetraazacyclohepta[def]cyclopenta[a]fluoren-4(5H)-one sesqui-hydrate]
[3]
  effect on tumor growth: no significant effect on tumor growth
[4]
  in vitro activity as a single agent: excellent in vitro activity
[2]; 16 pts, Compound B 60 mg BID plus TMZ 20-120 mg QD
  most common drug-related AE: nausea (n pts): 6
[2]; in combination
  plasma exposure: consistent with single-agent trials
PARylation
  inhibition of PARylation in xenografts: time- and dose-dependent inhibition of PARylation
Brain penetrance
  brain penetrance: significant brain penetrance
[5]
  Compound B-related AE fatigue (n patients): 5
  Compound B-related AE nausea (n patients): 6
MDA-MB-436 breast cancer; more potent than olaparib
  potency relative to olaparib: 16 fold
MDA-MB-436 breast cancer; single agent
  anti-tumor activity: strong anti-tumor activity
[6]
  effect on tumor growth: no significant effect on tumor growth
